# Experimental data taken from patent US20210029994A1, “HERBICIDE COMPOSITIONS AND METHODS OF CONTROLLING GROWTH OF PLANTS” (priority 2019, published 2021).
# “Also recorded” adds a separate entry of the source.
# Columns and labels:
# Format in all cases: in vivo
# [1] = test system: Amaranthus rudis JD Sauer (Waterhemp), Group 2,4,5,14,9,27 Resistant; assay: Post-emergent treatment of potted weeds with herbicide composition, 7 day growth (FIG. 2); conditions: 1% Juglone; weeds about 0-2 weeks post emergent (about 2-5 cm); 7 days after treatment
# Description: (§1) Referring now to the figures, pictures of various weeds are shown herein after being treated with an herbicide composition described herein. In all of the pictures provided herein, weeds that were about 0-2 weeks post emergent (e.g. about 2-5 cm in height) were treated with an herbicide composition having a 1% Juglone concentration. In most cases, plant damage was observed within two hours of treatment of the weeds with the herbicide composition.
# FIG. 2 is a picture of three pots showing 7 day growth of Amaranthus rudis JD Sauer (Waterhemp), Group 2,4,5,14,9,27 Resistant, when left untreated, treated with 1% Juglone, and treated with a control (i.e. solvent/surfactant, no active ingredient), respectively.
# [2] = test system: Amaranthus hybridus L. (smooth pigweed), Group 2,5 Resistant; assay: Post-emergent treatment of potted weeds with herbicide composition, 7 day growth (FIG. 7); conditions: 1% Juglone; weeds about 0-2 weeks post emergent (about 2-5 cm); 7 days after treatment
# Description: as §1
# FIG. 7 is a picture of three pots showing 7 day growth of Amaranthus hybridus L. (smooth pigweed), Group 2,5 Resistant, when left untreated, treated with 1% Juglone, and treated with a control (i.e. solvent/surfactant, no active ingredient), respectively.
# [3] = test system: Amaranthus retroflexus L. (pigweed), Group 2,5 Resistant; assay: Post-emergent treatment of potted weeds with herbicide composition, 7 day growth (FIG. 5); conditions: 1% Juglone; weeds about 0-2 weeks post emergent (about 2-5 cm); 7 days after treatment
# Description: as §1
# FIG. 5 is a picture of two pots showing 7 day growth of Amaranthus retroflexus L. (pigweed), Group 2,5 Resistant, when left untreated and treated with 1% Juglone, respectively.
# [4] = test system: Solanum ptycanthum (eastern black nightshade), Group 2 Resistant; assay: Post-emergent treatment of potted weeds with herbicide composition, 7 day growth (FIG. 6); conditions: 1% Juglone; weeds about 0-2 weeks post emergent (about 2-5 cm); 7 days after treatment
# Description: as §1
# FIG. 6 is a picture of two pots showing 7 day growth of Solanum ptycanthum (eastern black nightshade), Group 2 Resistant, when left untreated and treated with […] Juglone, respectively.
# [5] = test system: Amaranthus powelli (Powell's Amaranth), Group 2,5 resistant; assay: Post-emergent treatment of potted weeds with herbicide composition, 7 day growth (FIG. 1); conditions: 1% Juglone, weeds about 0-2 weeks post emergent (about 2-5 cm), 7 days after treatment
# Description: as §1
# Specifically, FIG. 1 is a picture of three pots showing 7 day growth of Amaranthus powelli (Powell's Amaranth), Group 2,5 resistant, when left untreated, treated with 1% Juglone, and treated with a control (i.e. solvent/surfactant, no active ingredient), respectively.
# weeds = assay: Onset of plant damage after treatment of weeds with herbicide composition; conditions: 1% Juglone concentration; weeds about 0-2 weeks post emergent; in most cases
# Description: as §1
# [6] = test system: Chenopodium album L. (lamb's quarters), Group 2,5 Resistant; assay: Post-emergent treatment of potted weeds with herbicide composition, 7 day growth (FIG. 4); conditions: 1% Juglone; weeds about 0-2 weeks post emergent (about 2-5 cm); 7 days after treatment
# Description: as §1
# FIG. 4 is a picture of three pots showing 7 day growth of Chenopodium album L. (lamb's quarters), Group 2,5 Resistant, when left untreated, treated with 1% Juglone, and treated with a control (i.e. solvent/surfactant, no active ingredient), respectively.
# [7] = test system: Amaranthus rudis JD Sauer (Waterhemp), non-resistant; assay: Post-emergent treatment of potted weeds with herbicide composition, 7 day growth (FIG. 3); conditions: 1% Juglone; weeds about 0-2 weeks post emergent (about 2-5 cm); 7 days after treatment
# Description: as §1
# FIG. 3 is a picture of three pots showing 7 day growth of Amaranthus rudis JD Sauer (Waterhemp), non-resistant, when left untreated, treated with 1% Juglone, and treated with a control (i.e. solvent/surfactant, no active ingredient), respectively.
smiles,measurement,setting,value
"O=C1C=CC(=O)c2c(O)cccc21 [Juglone, 5-hydroxy-1,4-naphthalenedione]","control of growth of Amaranthus rudis JD Sauer (Waterhemp), Group 2,4,5,14,9,27 Resistant",[1],effectively controlled the growth; also recorded: did control the growth
same,"control of growth of Amaranthus hybridus L. (smooth pigweed), Group 2,5 Resistant",[2],effectively controlled the growth
same,"control of growth of Amaranthus retroflexus L. (pigweed), Group 2,5 Resistant",[3],effectively controlled the growth
same,"control of growth of Solanum ptycanthum (eastern black nightshade), Group 2 Resistant",[4],effectively controlled the growth
same,control of growth of Amaranthus powelli,[5],effectively controlled the growth
same,time to observed plant damage after treatment,weeds,two
same,"control of growth of Chenopodium album L. (lamb's quarters), Group 2,5 Resistant",[6],effectively controlled the growth
same,"control of growth of Amaranthus rudis JD Sauer (Waterhemp), non-resistant",[7],did not effectively control the growth
